Assay results published in ChEMBL document CHEMBL4507315 (2021).

Tests used:
[1] = target: Muscarinic acetylcholine receptor M3 (Homo sapiens) (UniProt P20309); details: Compound concentration 10.0 uM
[2] = target: Sodium-dependent serotonin transporter (Homo sapiens) (UniProt P31645); details: Compound concentration 10.0 uM
[3] = target: Casein kinase I isoform epsilon (Homo sapiens) (UniProt P49674); details: Compound concentration 100.0 nM
[4] = target: Dual specificity mitogen-activated protein kinase kinase 7 (Homo sapiens) (UniProt O14733); details: Compound concentration 100.0 nM
[5] = target: Uncharacterized serine/threonine-protein kinase SBK3 (Homo sapiens) (UniProt P0C264); details: Compound concentration 100.0 nM
[6] = system: Tyrosine-protein kinase ABL1 (Homo sapiens), P00519 [H396P]; details: Compound concentration 100.0 nM
[7] = target: Tyrosine-protein kinase Lyn (Homo sapiens) (UniProt P07948); details: Compound concentration 100.0 nM
[8] = target: Serine/threonine-protein kinase OSR1 (Homo sapiens) (UniProt O95747); details: Compound concentration 100.0 nM
[9] = system: Epidermal growth factor receptor (Homo sapiens), P00533 [UNDEFINED MUTATION]; details: Compound concentration 100.0 nM
[10] = target: Beta-2 adrenergic receptor (Homo sapiens) (UniProt P07550); details: Compound concentration 10.0 uM
[11] = target: Fibroblast growth factor receptor 3 (Homo sapiens) (UniProt P22607); details: Compound concentration 100.0 nM
[12] = target: Serine/threonine-protein kinase 33 (Homo sapiens) (UniProt Q9BYT3); details: Compound concentration 100.0 nM
[13] = system: Epidermal growth factor receptor (Homo sapiens), P00533 [G719C]; details: Compound concentration 100.0 nM
[14] = target: Beta-1 adrenergic receptor (Homo sapiens) (UniProt P08588); details: Compound concentration 10.0 uM
[15] = target: Serine/threonine-protein kinase PAK 2 (Homo sapiens) (UniProt Q13177); details: Compound concentration 100.0 nM
[16] = target: Serine/threonine-protein kinase 32B (Homo sapiens) (UniProt Q9NY57); details: Compound concentration 100.0 nM
[17] = target: Ribosomal protein S6 kinase alpha-4 (Homo sapiens) (UniProt O75676); details: Compound concentration 100.0 nM
[18] = target: Phosphatidylinositol 5-phosphate 4-kinase type-2 beta (Homo sapiens) (UniProt P78356); details: Compound concentration 100.0 nM
[19] = target: Alpha-1B adrenergic receptor (Homo sapiens) (UniProt P35368); details: Compound concentration 10.0 uM
[20] = target: Beta-3 adrenergic receptor (Homo sapiens) (UniProt P13945); details: Compound concentration 10.0 uM
[21] = system: Tyrosine-protein kinase ABL1 (Homo sapiens), P00519 [T315I]; details: Compound concentration 100.0 nM
[22] = target: ALK tyrosine kinase receptor (Homo sapiens) (UniProt Q9UM73); details: Compound concentration 100.0 nM
[23] = target: Fibroblast growth factor receptor 1 (Homo sapiens) (UniProt P11362); details: Compound concentration 100.0 nM
[24] = target: Ribosomal protein S6 kinase alpha-5 (Homo sapiens) (UniProt O75582); details: Compound concentration 100.0 nM
[25] = target: Serine/threonine-protein kinase MARK1 (Homo sapiens) (UniProt Q9P0L2); details: Compound concentration 100.0 nM
[26] = target: Activin receptor type-1B (Homo sapiens) (UniProt P36896); details: Compound concentration 100.0 nM
[27] = target: Fibroblast growth factor receptor 2 (Homo sapiens) (UniProt P21802); details: Compound concentration 100.0 nM
[28] = target: Mitogen-activated protein kinase kinase kinase kinase 3 (Homo sapiens) (UniProt Q8IVH8); details: Compound concentration 100.0 nM
[29] = target: Proto-oncogene tyrosine-protein kinase receptor Ret (Homo sapiens) (UniProt P07949); details: Compound concentration 100.0 nM
[30] = system: Receptor-type tyrosine-protein kinase FLT3 (Homo sapiens), P36888 [D835Y]; details: Compound concentration 100.0 nM
[31] = target: Cyclin-dependent kinase 15 (Homo sapiens) (UniProt Q96Q40); details: Compound concentration 100.0 nM
[32] = target: Death-associated protein kinase 2 (Homo sapiens) (UniProt Q9UIK4); details: Compound concentration 100.0 nM
[33] = target: Ephrin type-A receptor 5 (Homo sapiens) (UniProt P54756); details: Compound concentration 100.0 nM
[34] = target: 5-hydroxytryptamine receptor 7 (Homo sapiens) (UniProt P34969); details: Compound concentration 10.0 uM
[35] = target: Leucine-rich repeat serine/threonine-protein kinase 2 (Homo sapiens) (UniProt Q5S007); details: Compound concentration 100.0 nM
[36] = target: D(1A) dopamine receptor (Homo sapiens) (UniProt P21728); details: Compound concentration 10.0 uM
[37] = target: Death-associated protein kinase 1 (Homo sapiens) (UniProt P53355); details: Compound concentration 100.0 nM
[38] = target: Aurora kinase B (Homo sapiens) (UniProt Q96GD4); details: Compound concentration 100.0 nM
[39] = target: Mitogen-activated protein kinase kinase kinase 7 (Homo sapiens) (UniProt O43318); details: Compound concentration 100.0 nM
[40] = target: Mitogen-activated protein kinase kinase kinase 1 (Homo sapiens) (UniProt Q13233); details: Compound concentration 100.0 nM
[41] = target: Serine/threonine-protein kinase 38-like (Homo sapiens) (UniProt Q9Y2H1); details: Compound concentration 100.0 nM
[42] = target: Cyclin-dependent kinase-like 2 (Homo sapiens) (UniProt Q92772); details: Compound concentration 100.0 nM
[43] = target: Receptor-interacting serine/threonine-protein kinase 1 (Homo sapiens) (UniProt Q13546); details: Compound concentration 100.0 nM
[44] = target: SRSF protein kinase 1 (Homo sapiens) (UniProt Q96SB4); details: Compound concentration 100.0 nM
[45] = system: ALK tyrosine kinase receptor (Homo sapiens), Q9UM73 [C1156Y]; details: Compound concentration 100.0 nM
[46] = target: Serine/threonine-protein kinase Nek11 (Homo sapiens) (UniProt Q8NG66); details: Compound concentration 100.0 nM

Chain of Muscarinic acetylcholine receptor M3 (Homo sapiens) (P20309 whole entry, looked up): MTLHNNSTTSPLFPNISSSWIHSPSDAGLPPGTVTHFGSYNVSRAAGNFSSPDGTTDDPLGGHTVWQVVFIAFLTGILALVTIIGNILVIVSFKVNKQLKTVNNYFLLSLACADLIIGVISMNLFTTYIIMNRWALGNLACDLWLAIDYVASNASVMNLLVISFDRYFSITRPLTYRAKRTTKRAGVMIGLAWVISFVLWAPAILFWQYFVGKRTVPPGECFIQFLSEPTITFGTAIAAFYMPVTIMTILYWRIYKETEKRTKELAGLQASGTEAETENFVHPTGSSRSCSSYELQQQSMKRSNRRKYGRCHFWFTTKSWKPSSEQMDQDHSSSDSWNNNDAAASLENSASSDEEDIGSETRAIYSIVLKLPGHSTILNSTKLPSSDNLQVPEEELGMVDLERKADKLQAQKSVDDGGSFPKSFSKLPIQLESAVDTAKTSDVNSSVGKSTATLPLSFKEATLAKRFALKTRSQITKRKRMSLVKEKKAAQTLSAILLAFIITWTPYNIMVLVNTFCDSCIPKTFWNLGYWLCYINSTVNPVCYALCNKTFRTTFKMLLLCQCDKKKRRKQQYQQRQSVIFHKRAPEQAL
Chain of Beta-2 adrenergic receptor (Homo sapiens) (P07550 whole entry, looked up): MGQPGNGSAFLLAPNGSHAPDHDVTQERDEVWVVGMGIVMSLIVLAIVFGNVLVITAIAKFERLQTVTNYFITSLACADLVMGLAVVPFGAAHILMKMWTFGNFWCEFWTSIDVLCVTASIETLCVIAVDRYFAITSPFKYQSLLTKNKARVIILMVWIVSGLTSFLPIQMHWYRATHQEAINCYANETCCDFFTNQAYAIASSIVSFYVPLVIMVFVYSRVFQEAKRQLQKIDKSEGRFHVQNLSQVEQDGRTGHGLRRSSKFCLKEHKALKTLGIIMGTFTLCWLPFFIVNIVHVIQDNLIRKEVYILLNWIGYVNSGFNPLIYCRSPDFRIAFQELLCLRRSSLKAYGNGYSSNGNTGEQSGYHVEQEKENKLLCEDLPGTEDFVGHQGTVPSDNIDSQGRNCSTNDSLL
Chain of SRSF protein kinase 1 (Homo sapiens) (Q96SB4 whole entry): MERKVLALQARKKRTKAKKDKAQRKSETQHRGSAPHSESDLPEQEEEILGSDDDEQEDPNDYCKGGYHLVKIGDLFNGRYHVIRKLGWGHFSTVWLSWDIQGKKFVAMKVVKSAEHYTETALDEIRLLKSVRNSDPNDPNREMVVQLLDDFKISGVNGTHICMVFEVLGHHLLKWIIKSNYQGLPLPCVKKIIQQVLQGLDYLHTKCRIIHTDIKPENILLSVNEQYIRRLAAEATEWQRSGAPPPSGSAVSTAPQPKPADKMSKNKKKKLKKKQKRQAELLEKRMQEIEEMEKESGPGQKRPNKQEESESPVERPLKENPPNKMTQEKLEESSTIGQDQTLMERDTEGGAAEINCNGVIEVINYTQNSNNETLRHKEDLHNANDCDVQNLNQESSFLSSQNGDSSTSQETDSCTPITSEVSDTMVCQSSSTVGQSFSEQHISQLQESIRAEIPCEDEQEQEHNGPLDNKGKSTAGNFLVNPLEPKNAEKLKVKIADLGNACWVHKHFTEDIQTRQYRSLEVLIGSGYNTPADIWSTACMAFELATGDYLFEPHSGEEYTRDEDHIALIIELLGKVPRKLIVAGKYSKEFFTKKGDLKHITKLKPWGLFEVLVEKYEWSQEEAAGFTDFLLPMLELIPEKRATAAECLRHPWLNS
Chain of Mitogen-activated protein kinase kinase kinase 1 (Homo sapiens) (Q13233 whole entry): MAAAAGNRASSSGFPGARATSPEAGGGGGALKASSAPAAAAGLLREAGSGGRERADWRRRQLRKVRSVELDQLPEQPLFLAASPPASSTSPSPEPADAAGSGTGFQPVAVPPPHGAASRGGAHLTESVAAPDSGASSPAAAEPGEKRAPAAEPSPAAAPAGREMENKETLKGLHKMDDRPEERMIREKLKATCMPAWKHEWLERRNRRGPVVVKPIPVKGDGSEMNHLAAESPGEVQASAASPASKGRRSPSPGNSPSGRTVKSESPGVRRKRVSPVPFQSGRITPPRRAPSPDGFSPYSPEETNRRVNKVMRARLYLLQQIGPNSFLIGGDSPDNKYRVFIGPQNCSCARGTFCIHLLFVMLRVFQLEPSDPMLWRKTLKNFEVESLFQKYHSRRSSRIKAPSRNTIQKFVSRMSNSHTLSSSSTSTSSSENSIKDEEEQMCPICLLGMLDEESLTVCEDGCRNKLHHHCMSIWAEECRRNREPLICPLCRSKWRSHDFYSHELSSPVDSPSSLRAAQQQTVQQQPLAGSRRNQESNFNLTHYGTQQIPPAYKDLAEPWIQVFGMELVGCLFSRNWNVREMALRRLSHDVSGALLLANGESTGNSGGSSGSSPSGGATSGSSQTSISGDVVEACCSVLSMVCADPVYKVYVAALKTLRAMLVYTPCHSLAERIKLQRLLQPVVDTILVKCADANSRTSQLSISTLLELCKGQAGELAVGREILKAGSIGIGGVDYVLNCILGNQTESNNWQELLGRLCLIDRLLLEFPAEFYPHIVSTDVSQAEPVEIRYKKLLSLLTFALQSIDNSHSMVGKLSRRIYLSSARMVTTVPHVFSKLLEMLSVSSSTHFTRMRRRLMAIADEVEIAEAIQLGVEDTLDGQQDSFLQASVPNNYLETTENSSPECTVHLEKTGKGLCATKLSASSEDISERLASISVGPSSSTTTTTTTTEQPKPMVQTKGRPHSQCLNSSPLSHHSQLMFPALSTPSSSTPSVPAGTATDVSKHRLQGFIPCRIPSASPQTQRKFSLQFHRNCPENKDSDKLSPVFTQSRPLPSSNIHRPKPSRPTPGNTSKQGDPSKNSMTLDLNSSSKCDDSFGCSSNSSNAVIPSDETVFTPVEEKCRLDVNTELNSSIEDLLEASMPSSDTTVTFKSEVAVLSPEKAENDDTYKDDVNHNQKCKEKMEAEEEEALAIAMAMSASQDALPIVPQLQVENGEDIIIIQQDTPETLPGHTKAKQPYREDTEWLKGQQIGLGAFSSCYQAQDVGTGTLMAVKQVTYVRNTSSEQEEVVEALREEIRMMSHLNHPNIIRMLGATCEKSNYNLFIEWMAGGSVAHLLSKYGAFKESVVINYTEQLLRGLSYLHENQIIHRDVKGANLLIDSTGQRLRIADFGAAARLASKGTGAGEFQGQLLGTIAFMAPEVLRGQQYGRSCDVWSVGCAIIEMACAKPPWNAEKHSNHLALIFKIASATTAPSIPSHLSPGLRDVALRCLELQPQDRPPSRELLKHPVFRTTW
Chain of Serine/threonine-protein kinase 32B (Homo sapiens) (Q9NY57 whole entry): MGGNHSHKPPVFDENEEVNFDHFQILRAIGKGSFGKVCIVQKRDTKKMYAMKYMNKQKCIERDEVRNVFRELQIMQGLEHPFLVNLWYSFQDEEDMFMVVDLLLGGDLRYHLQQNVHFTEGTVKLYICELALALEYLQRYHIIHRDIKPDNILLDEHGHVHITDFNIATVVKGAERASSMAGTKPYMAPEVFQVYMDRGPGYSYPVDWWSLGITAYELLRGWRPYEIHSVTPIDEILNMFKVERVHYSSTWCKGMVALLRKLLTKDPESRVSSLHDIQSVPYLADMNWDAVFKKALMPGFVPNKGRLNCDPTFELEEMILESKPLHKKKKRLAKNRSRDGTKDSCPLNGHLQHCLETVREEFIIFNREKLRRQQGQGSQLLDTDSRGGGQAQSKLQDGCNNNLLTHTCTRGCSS
Chain of 5-hydroxytryptamine receptor 7 (Homo sapiens) (P34969 whole entry): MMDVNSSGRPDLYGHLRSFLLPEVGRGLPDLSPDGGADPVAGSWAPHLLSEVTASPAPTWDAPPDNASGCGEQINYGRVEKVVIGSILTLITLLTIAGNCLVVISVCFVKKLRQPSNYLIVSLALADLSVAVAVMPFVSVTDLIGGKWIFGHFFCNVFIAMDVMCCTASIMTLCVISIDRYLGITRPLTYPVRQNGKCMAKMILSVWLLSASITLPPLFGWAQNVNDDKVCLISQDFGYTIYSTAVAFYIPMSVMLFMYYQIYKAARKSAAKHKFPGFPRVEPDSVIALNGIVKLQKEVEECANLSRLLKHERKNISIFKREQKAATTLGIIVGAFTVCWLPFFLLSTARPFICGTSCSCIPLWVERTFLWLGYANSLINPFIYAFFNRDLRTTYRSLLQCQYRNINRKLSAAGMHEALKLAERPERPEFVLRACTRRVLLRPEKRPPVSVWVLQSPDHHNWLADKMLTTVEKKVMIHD
Chain of Mitogen-activated protein kinase kinase kinase kinase 3 (Homo sapiens) (Q8IVH8 whole entry): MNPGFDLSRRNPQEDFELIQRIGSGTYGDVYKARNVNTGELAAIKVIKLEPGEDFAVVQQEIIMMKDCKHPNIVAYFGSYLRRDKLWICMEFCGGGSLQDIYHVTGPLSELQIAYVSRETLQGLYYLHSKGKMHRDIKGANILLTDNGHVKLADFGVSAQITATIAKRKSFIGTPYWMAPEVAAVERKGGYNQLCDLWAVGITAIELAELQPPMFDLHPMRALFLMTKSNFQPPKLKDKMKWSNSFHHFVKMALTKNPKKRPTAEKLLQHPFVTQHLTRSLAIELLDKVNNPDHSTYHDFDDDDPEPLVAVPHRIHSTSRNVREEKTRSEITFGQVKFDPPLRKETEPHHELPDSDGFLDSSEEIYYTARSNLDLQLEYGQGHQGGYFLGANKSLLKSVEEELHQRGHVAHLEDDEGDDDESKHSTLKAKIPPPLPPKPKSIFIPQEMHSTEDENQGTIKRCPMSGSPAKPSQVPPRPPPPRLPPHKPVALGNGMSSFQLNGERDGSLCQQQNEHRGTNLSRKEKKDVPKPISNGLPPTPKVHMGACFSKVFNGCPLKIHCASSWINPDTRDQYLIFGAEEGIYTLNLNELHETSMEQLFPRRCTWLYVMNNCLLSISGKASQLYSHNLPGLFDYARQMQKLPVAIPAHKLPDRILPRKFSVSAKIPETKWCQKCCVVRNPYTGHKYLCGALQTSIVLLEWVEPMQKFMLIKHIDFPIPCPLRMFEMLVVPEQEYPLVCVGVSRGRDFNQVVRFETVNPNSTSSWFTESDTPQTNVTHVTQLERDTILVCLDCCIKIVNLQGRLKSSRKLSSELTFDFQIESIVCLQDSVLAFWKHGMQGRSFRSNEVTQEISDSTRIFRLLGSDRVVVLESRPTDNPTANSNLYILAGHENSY

## Nc1c(C(=O)NCc2ccc(C(=O)NCCCC3CCCCC3)cc2)cnn1-c1ccccc1 [SR-318]
[1]
  inhibition: 25.2%
[2]
  inhibition: 7.75%
[3]
  residual activity: 98%
[4]
  residual activity: 99%
[5]
  residual activity: 87%
[6]
  residual activity: 80%
[7]
  residual activity: 100%
[8]
  residual activity: 100%
[9]
  residual activity: 100%
[10]
  inhibition: 6.62%
[11]
  residual activity: 100%
[12]
  residual activity: 96%
[13]
  residual activity: 85%
[14]
  inhibition: 25.3%
[15]
  residual activity: 66%
[16]
  residual activity: 100%
[17]
  residual activity: 85%
[18]
  residual activity: 100%
[19]
  inhibition: 8.69%
[20]
  inhibition: 21.8%
[21]
  residual activity: 100%
[22]
  residual activity: 100%
[23]
  residual activity: 71%
[24]
  residual activity: 94%
[25]
  residual activity: 79%
[26]
  residual activity: 100%
[27]
  residual activity: 100%
[28]
  residual activity: 100%
[29]
  residual activity: 89%
[30]
  residual activity: 100%
[31]
  residual activity: 95%
[32]
  residual activity: 100%
[33]
  residual activity: 100%
[34]
  inhibition: 13.2%
[35]
  residual activity: 39%
[36]
  inhibition: -5.64%
[37]
  residual activity: 92%
[38]
  residual activity: 81%
[39]
  residual activity: 100%
[40]
  residual activity: 96%
[41]
  residual activity: 44%
[42]
  residual activity: 93%
[43]
  residual activity: 100%
[44]
  residual activity: 90%
[45]
  residual activity: 100%
[46]
  residual activity: 94%

## O=C(NCCCC1CCCCC1)c1ccc(CNC(=O)c2cnn(-c3ccccc3)c2C(F)(F)F)cc1 [SR-321]
[1]
  inhibition: 19.5%
[2]
  inhibition: 0.18%
[3]
  residual activity: 100%
[4]
  residual activity: 100%
[5]
  residual activity: 100%
[6]
  residual activity: 98%
[7]
  residual activity: 100%
[8]
  residual activity: 91%
[9]
  residual activity: 100%
[10]
  inhibition: 12.4%
[11]
  residual activity: 100%
[12]
  residual activity: 87%
[13]
  residual activity: 96%
[14]
  inhibition: 21.9%
[15]
  residual activity: 100%
[16]
  residual activity: 100%
[17]
  residual activity: 83%
[18]
  residual activity: 96%
[19]
  inhibition: -3.62%
[20]
  inhibition: 21.7%
[21]
  residual activity: 100%
[22]
  residual activity: 100%
[23]
  residual activity: 100%
[24]
  residual activity: 100%
[25]
  residual activity: 100%
[26]
  residual activity: 100%
[27]
  residual activity: 100%
[28]
  residual activity: 78%
[29]
  residual activity: 89%
[30]
  residual activity: 100%
[31]
  residual activity: 77%
[32]
  residual activity: 98%
[33]
  residual activity: 92%
[34]
  inhibition: 25.8%
[35]
  residual activity: 57%
[36]
  inhibition: 5.56%
[37]
  residual activity: 100%
[38]
  residual activity: 95%
[39]
  residual activity: 89%
[40]
  residual activity: 65%
[41]
  residual activity: 20%
[42]
  residual activity: 100%
[43]
  residual activity: 89%
[44]
  residual activity: 95%
[45]
  residual activity: 100%
[46]
  residual activity: 100%
